What was measured:
[1] = test system: spontaneously breathing rats; assay: Minute ventilation (MV) and cardiovascular parameters in naive rats; assay type: in vivo, rat; set-up: unit not given here
Summary of the method: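 Isoflurane-anesthetized rats, intubated and breathing spontaneously at 1.5% isoflurane, received compounds IV, typically 1 mpk, via femoral vein. Minute ventilation recorded as maximum peak response and change versus baseline. Mean arterial pressure and heart rate were monitored through a femoral arterial catheter.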

[2] = test system: morphine-induced respiratory depression; assay: Opioid-induced respiratory depression in the rat, plethysmography (minute ventilation); assay type: in vivo; details: morphine sulfate 10 mg/kg IV; infusion 0.10 then 0.30 mg/kg/min, 20 min each; vs vehicle
Procedure: Rats with pre-cannulated jugular vein (for administering drugs) were acclimated to plethysmography chambers for a minimum of 60 minutes, or until animals were no longer restless. Each animal was dosed with morphine sulfate (10 mg/kg), dissolved in sterile water at a concentration of 10 mg/mL (supplied by Baxter Healthcare Corporation), via injection into the jugular vein catheter over a period of 5-10 seconds.
Compound (XXXVI) was dissolved in 20% hydroxypropyl β-cyclodextran (20% bcd on graph) at a concentration of 0.45 mg/mL at pH 5. After a period of 5 min, compound (XXXVI), labeled as cmpd (A), was administered via infusion into the jugular vein at a dose of 0.10 mg/kg/min for 20 min and then at a dose of […] for 20 min (e.g., 20 μL/min/0.3 kg rat to yield […]).
After 20 minutes of infusion at this dose, the infusion pumps were turned off, and all animals were given a 20 minute recovery period, followed by a post-study analysis of rat health and behavior. […] Results are illustrated in FIG. 1.

healthy subjects = assay: Ventilation, safety and pharmacokinetics in human volunteers, single-rising dose IV infusion; assay type: in vivo
Procedure: A randomized, double-blind, placebo-controlled nine-period single-rising dose study in three alternating cohorts of healthy subjects was conducted at a single center in conformance with Good Clinical Practice. Compound (XXXVI) was synthesized according to Good Manufacturing Practice. Three (3) Cohorts of ten subjects each were randomized to treatment in a ratio of 4:1 (8 treated, 2 placebo) in a rotating panel design. Subjects in the first cohort participated in dosing periods 1, 4, and 7, with the second cohort participating in dosing periods 2, 5, and 8, and third cohort participating in dosing period 3, 6, and 9. The subjects who received placebo in their first dosing period also received placebo in their second and third dosing periods. Similarly, drug-treated subjects received drug all three dosing periods. In the first Cohort, on the first dose only, 2 subjects were dosed on Day 1 with one subject receiving active drug and one subject receiving placebo. Following a review of available safety and tolerability data (excluding PK), the remainder of Cohort 1 was dosed the following day. Subjects were dosed as detailed in Table 11 with a minimum of 1-week washout between doses.
Subjects could be screened up to 28 days before the treatment period. On the evening before dosing, subjects were admitted to the clinical site and baseline evaluations were conducted. After an overnight fast, subjects received an intravenous infusion of Compound (XXXVI) or placebo then PD, PK, and safety evaluations were conducted during the next 24 hours. Cohort 1 was enrolled to the lowest dose group and randomized to Compound (XXXVI) or placebo. Safety and tolerability evaluations for each dose included all safety assessments obtained through approximately 24 hours post-dose.
Pharmacodynamic endpoints were assessed by two independent systems consisting of Dräger Infinity patient monitoring system and a portable NOX-T3 respiratory monitoring system. The Dräger system is an inpatient intensive care/postoperative monitoring system used to monitor minute ventilation, respiratory rate (RR), tidal volume (VT) via a pneumotachometer (Capnostat sensor), transcutaneous oxygen hemoglobin saturation (SpO2), and end tidal carbon dioxide (ETCO2) (Capnostat sensor). NOX/T3 is a portable monitoring device used for home diagnostic sleep apnea assessments. In this study, NOX device monitored RR, VT via respiratory inductance plethysmography (RIP), SpO2 (Nonin), actigraphy, nasal air flow, and audio recording of the dosing session. In addition to monitoring pharmacodynamic effects, the Dräger system was also used to monitor subject real-time safety. Standard safety assessments were measured repeatedly throughout the dosing session, and consisted of vital signs (BP, HR, RR, temperature (oral)), Ramsay Sedation Scale (RSS), and pulmonary function testing.
Test Product, Dose, Mode of Administration, Batch and Lot No(s): Compound (XXXVI) was prepared as a sterile product for injection ready for dilution in normal saline and administration by infusion. Doses were based on the subject's weight on a milligram per kilogram basis and were administered over a 1-, 2-, 3- or 4-hour infusion as described in Table 11. Compound (XXXVI) (Batch No. 04110511) was provided by the Sponsor as a 50 mL fill of 10 mg/mL solution (GAL-021 freebase) in 20 mM citrate for IV Injection; Saline was sourced by the Investigator from Baxter, Lot 11F03E7L.
Thirty (30) subjects received single IV infusions over 1, 2, 3, or 4 hours on the first day of each of 3 periods for a total of 3 dosing days per subject. Per protocol, there was to be a minimum one week washout between doses of Compound (XXXVI) for all subjects. Actual washout periods ranged from 9 to 20 days overall.
Pharmacodynamic (PD) evaluations included tidal volume, respiratory rate, minute ventilation, end-tidal CO2, and transcutaneous hemoglobin oxygen saturation (SpO2). […]

[3] = 1 mpk IV, 15% DMA 85% D5W, pH 5-6
[4] = Table 8, 1 mpk, 20% HPβCD, pH 5
[5] = IV infusion 0.102 to 2.16 mg/kg, 1 to 4 hours

CCCNc1nc(NCCC)nc(N(C)OC)n1 [XXXV, N-(4,6-Bis-n-propylamino-[1,3,5]triazin-2-yl)-N,O-dimethyl-hydroxylamine]
MV MPR [1, 3]: 207
MV ΔMV [1, 3]: 135
MV MPR ([1]; 1 mpk IV, 20% HPβCD, pH 4-5): 344
MV ΔMV ([1]; 1 mpk IV, 20% HPβCD, pH 4-5): 210
MV DMV [1, 4]: 164
MV MPR [1, 4]: 267

CCCNc1nc(NCCC)nc(N(C)OC)n1.O=S(=O)(O)O [XXXVI, N-(4,6-Bis-n-propylamino-[1,3,5]triazin-2-yl)-N,O-dimethyl-hydroxylamine hydrogen sulfate]
minute ventilation, reversal of opioid-induced respiratory depression [2]: significantly reversed opioid-induced respiratory depression
increase in tidal volume (healthy subjects; 0.016 mg/kg dose (so in the source)): < 10%
minute ventilation (healthy subjects; 0.016 mg/kg/min x 1 hour): stimulated minute ventilation
safety and tolerability (healthy subjects; 0.102-2.16 mg/kg IV, durations 1 to 4 hours): generally safe and well tolerated
dose proportionality of concentration at 1 hour and AUC (healthy subjects; [5]): dose proportional
pharmacokinetic behaviour (healthy subjects; [5]): well-behaved pharmacokinetically
change in respiratory rate (healthy subjects; all doses): < 10%
increase in minute ventilation (healthy subjects; highest infusion rate (0.016 mg/kg/min x 1 hour), first 2 hours after start of infusion): ~27%
